# Source: publication PMC6773865, “Functional recruitment of dynamin requires multimeric interactions for efficient endocytosis” (Nature Communications, 2019)
# System: rat brain lysate proteins
# Assay: Affinity isolation (pull-down) from rat brain lysate, silver stain and proteomics
# Assay type: binding
# Conditions: for proteins pulled down (silver stain, words): biotinylated peptide, rat brain lysate, streptavidin beads; for enrichment of co-precipitated proteins by mass spectroscopy: in comparison to control conditions (absence of peptide)
# Experimental: Brains were obtained from adult (2–3 months old) Sprague-Dawley rats raised in the animal facility of Bordeaux University B 33 063 917. Animals were killed by decapitation after isoflurane anaesthesia (5%, 3 min), in accordance with the European 2010/63/EU directive and approved by the Bordeaux University Ethics Committee (CE50). Frozen brains (2 × ~1.5 g) were thawed in 20 mL ice cold modified RIPA buffer (50 mM Tris pH 7.5, 150 mM NaCl, 0.1% SDS, 0.5% sodium deoxycholate, 1% NP-40, 1 mM EDTA) containing a protease inhibitor mixture (1:1000; Protease Inhibitor Cocktail set III; Calbiochem) for about 5 min and cut into small pieces. The tissues were homogenised using a glass/teflon homogeniser. Homogenates were centrifuged at 7500 × g for 25 min at 4 °C to remove cell debris. The supernatant was aliquoted and stored at −80 °C until the affinity-based isolation (pull-down) experiments were performed. Streptavidin-coated beads (Dynabeads M-280, Life Technologies) were washed three times and incubated for 15 min at room temperature (RT) in modified RIPA buffer supplemented with 0.1% BSA. Rat brain lysates were incubated with the biotinylated peptide (or biotin as a negative control) for 10 min at RT before addition of the beads and further incubation for 5 min at RT. Beads were washed five times in RIPA buffer and transferred into new eppendorf tubes. For elution, acetylated ligands were added in excess to the bead suspension and incubated for 5 min at RT. The supernatant was kept for proteomics analysis and electrophoresis followed by silver staining after addition of fresh 6× sample buffer (ProteoSilver Silver Stain Kit, Sigma-Aldrich).
# Samples were solubilized in Laemlli buffer and were deposited in triplicate onto SDS-PAGE. Separation was stopped once proteins have entered resolving gel. After colloidal blue staining, bands were cut out from the SDS-PAGE gel and subsequently cut in 1 mm × 1 mm gel pieces. Gel pieces were destained in 25 mM ammonium bicarbonate 50% MeCN, rinsed twice in ultrapure water and shrunk in MeCN for 10 min. After MeCN removal, gel pieces were dried at room temperature, covered with the trypsin solution (10 ng/µl in 50 mM NH4HCO3), rehydrated at 4 °C for 10 min, and finally incubated overnight at 37 °C. Spots were then incubated for 15 min in 50 mM NH4HCO3 at room temperature with rotary shaking. The supernatant was collected, and an H2O/MeCN/HCOOH (47.5:47.5:5) extraction solution was added onto gel slices for 15 min. The extraction step was repeated twice. Supernatants were pooled and dried in a vacuum centrifuge to a final volume of 25 µL. Digests were finally resuspended in 25 µl of formic acid (5%, v/v) and stored at −20 °C.
# Peptide mixture was analysed on a Ultimate 3000 nanoLC system (Dionex, Amsterdam, The Netherlands) coupled to a nanospray LTQ-Orbitrap XL mass spectrometer (ThermoFinnigan, San Jose, CA). Ten microliters of peptide digests were loaded onto a 300-µm-inner diameter × 5-mm C18 PepMap^TM trap column (LC Packings) at a flow rate of 30 µL/min. The peptides were eluted from the trap column onto an analytical […] × 15-cm C18 Pep-Map column (LC Packings) with a 4–40% linear gradient of solvent B in 35 min (solvent A was 0.1% formic acid in 5% MeCN, and solvent B was 0.1% formic acid in 80% MeCN). The separation flow rate was set at 300 nL/min. The mass spectrometer operated in positive ion mode at a 2-kV needle voltage. Data were acquired in a data-dependent mode. Mass spectrometry (MS) scans (m/z 300–1700) were recorded at a resolution of R = 70,000 (@ m/z 400) and an AGC target of 5 × 10^5 ions collected within 500 ms. Dynamic exclusion was et to 30 s and top 6 ions were selected from fragmentation in CID mode. MS/MS scans with a target value of 1 × 10^4 ions were collected in the ion trap with a maximum fill time of 200 ms. Additionally, only +2 and +3 charged ions were selected for fragmentation. […]
# [1] = pull-down from rat brain lysate, LC-MS/MS, vs no peptide control
molecule,measurement,setting,value
"Ac-YPPPQVPSRPNRAPPG-NH2 [D15, reference compound]","proteins pulled down (silver stain, words)",,unable to pull down any detectable amount of protein
same,enrichment of co-precipitated proteins by mass spectroscopy,,failed to show any significant enrichment
same,"Max fold change, BIN1 (Amph2)",[1],0.163
same,"Max fold change, CD2-ap",[1],0.01
same,"Max fold change, Endophilin-A1",[1],0.001
same,"Max fold change, Intersectin-2",[1],0.944
same,"Max fold change, SH3d19",[1],0.232
same,"Max fold change, SH3kbp1/CIN85",[1],0.205
same,"Max fold change, any SH3 domain-containing protein",[1],< 1
CC(=O)N[C@@H](Cc1ccc(O)cc1)C(=O)N[C@@H](CCCCn1cc(CCC(=O)NCCCOCCOCCOCCCNC(=O)CCC(=O)NCCCOCCOCCOCCCNC(=O)CCC(=O)NCCCOCCOCCOCCCNC(=O)CCC(=O)N2CCC[C@H]2C(=O)N2CCC[C@H]2C(=O)N2CCC[C@H]2C(=O)N[C@@H](CCC(N)=O)C(=O)N[C@H](C(=O)N2CCC[C@H]2C(=O)N[C@@H](CO)C(=O)N[C@@H](CCCNC(=N)N)C(=O)N2CCC[C@H]2C(=O)N[C@@H](CC(N)=O)C(=O)N[C@@H](CCCNC(=N)N)C(=O)N[C@@H](C)C(=O)N2CCC[C@H]2C(=O)N2CCC[C@H]2C(=O)NCC(N)=O)C(C)C)nn1)C(=O)NCCCOCCOCCOCCCNC(=O)CCC(=O)NCCCOCCOCCOCCCNC(=O)CCC(=O)NCCCOCCOCCOCCCNC(=O)CCC(=O)N1CCC[C@H]1C(=O)N1CCC[C@H]1C(=O)N1CCC[C@H]1C(=O)N[C@@H](CCC(N)=O)C(=O)N[C@H](C(=O)N1CCC[C@H]1C(=O)N[C@@H](CO)C(=O)N[C@@H](CCCNC(=N)N)C(=O)N1CCC[C@H]1C(=O)N[C@@H](CC(N)=O)C(=O)N[C@@H](CCCNC(=N)N)C(=O)N[C@@H](C)C(=O)N1CCC[C@H]1C(=O)N1CCC[C@H]1C(=O)NCC(N)=O)C(C)C [dD15-N],"proteins pulled down (silver stain, words)",,isolated a number of proteins
same,enrichment of co-precipitated proteins by mass spectroscopy,,highly enriched in CME related proteins
same,"Max fold change, AP2a1",[1],28.6
same,"Max fold change, AP2a2",[1],13.8
same,"Max fold change, AP2b1",[1],40.0
same,"Max fold change, AP2m1",[1],25.5
same,"Max fold change, Actg1",[1],2.2
same,"Max fold change, Actg2",[1],2.3
same,"Max fold change, Amphiphysin1",[1],40.7
same,"Max fold change, Amy1a",[1],2.8
same,"Max fold change, Appbp2",[1],20.8
same,"Max fold change, Atp1a3",[1],33.4
same,"Max fold change, BIN1 (Amph2)",[1],70.2
same,"Max fold change, CD2-ap",[1],124.5
same,"Max fold change, CHC",[1],22.7
same,"Max fold change, Calcoco1",[1],11.9
same,"Max fold change, Capza1",[1],23.0
same,"Max fold change, Dnm1",[1],27.4
same,"Max fold change, Endophilin-A1",[1],53.5
same,"Max fold change, Endophilin-A2",[1],1.7
same,"Max fold change, Eps15l1",[1],196.9
same,"Max fold change, Hspa5",[1],4.1
same,"Max fold change, Hspa8",[1],15.6
same,"Max fold change, Hspa9",[1],42.1
same,"Max fold change, Intersectin-1",[1],60.7
same,"Max fold change, Intersectin-2",[1],118.9
same,"Max fold change, Rundc3a",[1],16.0
same,"Max fold change, SH3d19",[1],42.9
same,"Max fold change, SH3kbp1/CIN85",[1],207.5
same,"Max fold change, SNX18",[1],16.1
same,"Max fold change, Tuba1a",[1],13.3
same,"Max fold change, Tuba4a",[1],14.5
same,"Max fold change, Tubb2a",[1],75.4
same,"Max fold change, Tubb3",[1],1.2
same,"Max fold change, Tubb4a",[1],43.4
same,"Max fold change, Tubb5",[1],18.0
same,"Max fold change, Ubc",[1],1.2
